Results: patent US20040219622A1, “Phosphine-containing formulations for chemiluminescent luciferase assays” (priority 2001, published 2004)

Legend:
Format in all cases: biochemical
[1] = molecular target: T1, firefly luciferase (Photinus pyralis, UniProt P08659); assay: Firefly luciferase reaction with additives TCEP, CoA, DTT alone or combined (Example 3); conditions: CoA 0.5 mM, DTT 5 mM, light output then rapidly decreased
Experimental: A common firefly luciferase reaction mix was prepared by combining stock solutions of Tris/Mg buffer, D-luciferin, and ATP. A 600 μl aliquot of this mix consisted of 480 μl of 0.1 M Tris, 10 mM MgCl2, pH 8.0, 85 μl of 10 mM D-luciferin in 0.1 M Tris, pH 8.0, and 17 μl of 50 mM ATP (1889485) in 0.1 M Tris, pH 8.0. Separate aliquots of the reaction mixture were then supplemented with various combinations of additives selected from a 0.5 M TCEP solution, a stock solution of CoA (5 mM CoA in 0.1 M Tris, pH 8.0), or a stock solution of DTT (50 mM DTT in 0.1 M Tris, pH 8.0) and then brought to a final volume of 1 ml with 0.1 M Tris, pH 8.0. In such fashion, the following solutions were obtained: a solution with no additives (None), TCEP (T), TCEP plus CoA (TC), TCEP plus DTT (TD), TCEP plus CoA plus DTT (TCD), CoA (C), CoA plus DTT (CD), and DTT (D or DTT). Where used, the final concentrations of TCEP, CoA, and DTT were 50, 0.5, and 5 mM, respectively. […]
Firefly luciferase was diluted from a stock solution (2 μl of 14.7 mg/ml) with 0.1 M Tris, pH 8.0, containing 2 mg/ml bovine serum albumin. […] The plate was immediately placed into an Orion Luminometer, and light output from the plate wells was measured with sequential plate reading cycles over a one hour time frame, each cycle allowing the wells of the plate to be read with a time interval of approximately 140 seconds.

[2] = molecular target: T1, firefly luciferase; assay: ATP assay with TCEP in firefly luciferin-luciferase reaction (Example 4); conditions: 5 mM DTT; 33.3 mM TCEP; 0-500 μM ATP
Experimental: A common solution was prepared by combining stock solutions of Tris/Mg buffer, D-luciferin, and TCEP. A 2.25 ml aliquot of this solution contained 1.2 ml of 0.1 M Tris, 10 mM MgCl2, pH 8.0, 18.75 μl of 10 mM D-luciferin in 0.1 M Tris, pH 8.0, 165 μl of 0.5 M TCEP, with the remaining volume being 0.1 M Tris, pH 8.0. 0.5 ml of this mixture was removed and to it was added 11 μl of an ATP stock solution (50 mM ATP in 0.1 M Tris, pH 8.0) and 39 μl of 0.1 M Tris, pH 8.0; the remaining 1.75 ml of mixture received 175 μl of 0.1 M Tris, pH 8.0. The ATP-containing aliquot was then serially diluted with the non-ATP-containing mixture to yield a final ATP concentration series of 500, 250, 125, 62.5, 31.25, 15.625, and 0 μM. The non-ATP-containing mixture served as the control for zero ATP concentration. In this series of reaction mixtures with varying concentrations of ATP, the final luciferin, magnesium, and TCEP concentrations were 75.8 μM luciferin, 4.8 mM magnesium, and 33.3 mM TCEP. […]
Firefly luciferase was diluted from a stock solution (2 μl of 14.7 mg/ml) with 0.1 M Tris, pH 8.0 containing 2 mg/ml bovine serum albumin. […] The plate was immediately placed into an Orion Luminometer and light output from the wells was measured with sequential plate reading cycles, each cycle allowing the wells of the plate to be read with a time interval of approximately 2.25 minutes. […]

[3] = molecular target: T1, firefly luciferase; assay: TCEP-mediated firefly luciferase reaction with DTT series (Example 5); conditions: 33.5 mM TCEP; for signal decrease from first reading cycle to 11 minutes 34 seconds later: no added DTT
Experimental: A common solution was prepared by combining stock solutions of Tris/Mg buffer, D-luciferin, TCEP, and ATP. This solution was prepared by combining 12 ml of 0.1 M Tris, 10 mM MgCl2, pH 8.0, 187.5 μl of 10 mM D-luciferin in 0.1 M Tris, pH 8.0, […] 0.5 M TCEP, and 30 μl of an ATP stock solution (50 mM ATP in 0.1 M Tris, pH 8.0) and 1.02 ml of 0.1 M Tris, pH 8.0. A 150 μl aliquot of this solution was added to 100 μl of 50 mM DTT stock solution (50 mM DTT in 0.1 M Tris, pH 8.0) for a final DTT concentration of 20 mM, and another 1.35 ml aliquot of the solution received 0.9 ml 0.1 M Tris, pH 8.0. The 20 mM DTT reaction solution was further diluted with the second aliquot to give a final DTT concentration series of […], and 0 mM DTT. In this series of reaction mixtures with varying concentrations of DTT, the final luciferin, magnesium, and TCEP concentrations were 75.5 μM luciferin, 4.8 mM magnesium, and 33.5 mM TCEP and 238 μM ATP. Other reaction mixtures with varying DTT concentrations were also prepared in like fashion, but with a final ATP concentration held constant at either 59.5, 29.75 or 14.875 μM, which was achieved by further dilution of the ATP solution with 0.1 M Tris, pH 8.
Firefly luciferase was diluted from a stock solution (2 μl of 14.7 mg/ml) with 0.1 M Tris, pH 8.0, containing 2 mg/ml bovine serum albumin. 10 μl aliquots containing 181 pg of enzyme were aliquoted into the wells of an opaque white 96-well microplate, after which 100 μl of the reaction mixtures with varying DTT concentrations were added. The plate was immediately placed into an Orion Luminometer, and light output from the wells was measured with sequential plate reading cycles, each cycle allowing the wells of the plate to be read with a time interval of approximately 2.25 minutes.
FIGS. 10 and 11 illustrate the results of this experiment. FIG. 10 illustrates the results obtained where the final ATP concentration of the reaction mixture was 238 μM, and FIG. 11 illustrates the results obtained where the final ATP concentration of the reaction mixture was 30 μM. Both graphs relate the observed RLU at each reading cycle expressed as a relative percentage of the signal obtained with the well receiving no DTT supplementation at the first reading cycle, with this signal being assigned 100%.

[4] = molecular target: T1, firefly luciferase; assay: Firefly luciferase reaction with TCEP concentration series (Example 1); conditions: for light output as % of the original signal: 96 mM TCEP
Experimental: A common firefly luciferase reaction mix was prepared by combining stock solutions of Tris/Mg buffer, D-luciferin, and ATP. A 900 μl aliquot of this mix consisted of 720 μl of 0.1 M Tris, 10 mM MgCl2, pH 8.0, 150 μl of 10 mM D-luciferin in 0.1 M Tris, pH 8.0, and 30 μl of 50 mM ATP in 0.1 M Tris, pH 8.0. A series of buffered TCEP preparations were prepared from a neutral pH, 0.5 M TCEP solution (Pierce Chemical Company Product No. 77720) by dilutions with 0.1 M Tris, pH 8.0, as necessary for a TCEP concentration series of 300, 150, 75, 37.5, 18.75, 9.38, 4.69, and 0 mM TCEP. 450 μl of each TCEP concentration were then added separately to 900 μl aliquots of the previously prepared mixture, followed by a final addition of 50 μl of 0.1 M Tris, pH 8.0, to each solution for a final volume of 1.4 ml. The final TCEP concentrations were, therefore, approximately 96, 48, 24, 12, 6, 3, 1.5, and 0 mM and the final Mg, luciferin, and ATP concentrations were 5.14, 1.07, and 1.07 mM, respectively.
Firefly luciferase was diluted from a stock solution (2 μl of 14.7 mg/ml) with 0.1 M Tris, pH 8.0, containing 2 mg/ml bovine serum albumin. 10 μl aliquots containing 181 pg of enzyme were aliquoted into the wells of an opaque white 96-well microplate, after which 125 μl of the reaction mixtures with varying TCEP concentrations were added. The plate was immediately placed into an Orion Luminometer (Berthold Detection Systems), and light output from the plate wells was measured for 15 sequential plate reading cycles, each cycle allowing the wells of the plate to be read with a time interval of approximately 2 minutes.

[5] = molecular target: T1, firefly luciferase; assay: Firefly luciferase reaction with TCEP series plus 5 mM DTT (Example 2)
Experimental: In this experiment, final TCEP concentration was varied from 0-96 mM in the reaction mixture, with the reaction mixture also containing a final concentration of DTT of 5 mM. The conditions for this experiment were identical to that shown in Example 1, but with substitution of the final addition of 50 μl of 0.1 M Tris, pH 8.0, to each solution with a final addition of 50 μl of 50 mM DTT stock solution prepared in 0.1 M Tris, pH 8.0. This experiment was also conducted simultaneously and in the same microwell plate as the experiment of Example 1.

[6] = molecular target: T2, Renilla luciferase (Renilla reniformis, UniProt P27652); assay: Renilla luciferase assay with or without TCEP (Example 6); conditions: 33.3 μl of 0.5 M TCEP added to 466.7 μl coelenterazine assay mixture
T2 construct: purchased Chemicon 4400
T2 sequence (P27652 1-311): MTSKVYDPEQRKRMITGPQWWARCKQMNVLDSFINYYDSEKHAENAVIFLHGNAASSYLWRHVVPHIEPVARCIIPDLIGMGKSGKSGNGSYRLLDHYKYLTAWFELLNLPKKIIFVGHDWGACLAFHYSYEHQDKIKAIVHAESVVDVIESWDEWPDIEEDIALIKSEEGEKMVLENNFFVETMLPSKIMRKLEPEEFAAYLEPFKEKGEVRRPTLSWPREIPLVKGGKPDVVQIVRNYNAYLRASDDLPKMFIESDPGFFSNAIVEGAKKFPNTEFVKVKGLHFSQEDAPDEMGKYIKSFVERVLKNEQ
Experimental: In order to ascertain whether or not TCEP would interfere with a Renilla assay, an experiment was conducted utilizing a Renilla assay mixture, with or without TCEP supplementation. A Renilla assay mixture was prepared by combining 480 μl of 0.1 M Tris, 10 mM MgCl2, 1 mM EDTA, pH 8.0, with 437.7 μl of 0.1 M Tris, pH 8.0, and 16.7 μl of a coelenterazine stock solution (59 μM coelenterazine in denatured ethanol prepared from Molecular Probes Catalog number C-6777). This solution was split into 2 aliquots of 466.7 μl, and one aliquot received 33.3 μl of 0.5 M TCEP and the other aliquot received 33.3 μl 0.1 M Tris, pH 8.0.
Renilla luciferase purchased from Chemicon (Catalog number 4400) was diluted with 1 ml phosphate-buffered saline (10 mM sodium phosphate, 150 mM NaCl, pH 7.2) and stored frozen at −80° C. in 10 μl aliquots, each aliquot containing 100 ng enzyme. An aliquot was removed and diluted with 0.1 M Tris, pH 8.0, for a concentration series of 166, 55, 18.5, and 0 pg/10 μl. 10 μl of each enzyme concentration were pipetted in duplicate to the wells of a white opaque 96-well microplate, and 100 μl of either of the TCEP containing solution or the solution without TCEP was pipetted into the wells to initiate the reaction. The plate was immediately placed into an Orion Luminometer, and light output from the wells was measured with sequential plate reading cycles.

T1 sequence (P08659 whole entry): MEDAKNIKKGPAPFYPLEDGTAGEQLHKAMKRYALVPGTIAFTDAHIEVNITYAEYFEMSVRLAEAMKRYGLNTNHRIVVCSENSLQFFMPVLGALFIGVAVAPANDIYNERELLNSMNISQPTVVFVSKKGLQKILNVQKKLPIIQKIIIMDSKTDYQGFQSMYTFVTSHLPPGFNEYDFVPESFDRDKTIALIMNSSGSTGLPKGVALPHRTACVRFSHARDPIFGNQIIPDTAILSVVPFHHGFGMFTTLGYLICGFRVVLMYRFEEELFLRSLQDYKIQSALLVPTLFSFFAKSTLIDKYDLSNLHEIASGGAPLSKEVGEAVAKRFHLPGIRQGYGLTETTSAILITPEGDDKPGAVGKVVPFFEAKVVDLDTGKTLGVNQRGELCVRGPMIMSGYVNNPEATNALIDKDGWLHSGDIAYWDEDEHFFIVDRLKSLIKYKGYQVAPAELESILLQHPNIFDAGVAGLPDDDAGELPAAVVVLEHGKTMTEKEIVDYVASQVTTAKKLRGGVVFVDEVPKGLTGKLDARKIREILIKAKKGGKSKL

## O[C@H](CS)[C@H](O)CS (racemic) [DTT, dithiothreitol]
[1]
  initial light output compared to the no addition control: increased
[2]
  RLUs on inclusion of DTT in the TCEP reaction mixture: elevated
[3]; 10 mM DTT, 30 μM ATP
  increase of initial RLU during the first cycle vs no DTT: about 8%
[3]; 20 mM DTT, 238 μM ATP
  increase of initial RLU during the first cycle vs no DTT: about 34%
[3]; 20 mM DTT, 250 μM ATP
  less light output after 11.5 minutes compared to the initial reading: 8.5%

## CC(C)(COP(=O)(O)OP(=O)(O)OC[C@H]1O[C@@H](n2cnc3c(N)ncnc32)[C@H](O)[C@@H]1OP(=O)(O)O)[C@@H](O)C(=O)NCCC(=O)NCCS [CoA, Coenzyme A]
[1]
  initial light output compared to the no addition control: increased

## O=C(O)CCP(CCC(=O)O)CCC(=O)O [TCEP, Tris(2-carboxyethyl) phosphine]
[4]; fourth reading cycle
  light output as % of the original signal: 49%
[4]; last reading cycle
  light output as % of the original signal: 32%
[4]; TCEP 1.5, 3 and 6 mM
  initially observed light output compared to the control reaction (no TCEP): significantly higher
[4]; TCEP 1.5-96 mM, 15th reading cycle, about 2 min per cycle, 181 pg enzyme, control lost >90%
  originally observed signal retained at the last reading cycle: 32 to 78%
[5]; 1.5-24 mM TCEP + 5 mM DTT
  RLU at the fifteenth reading cycle compared to control with DTT but without TCEP: greater RLU
[5]; 1.5 or 3 mM TCEP, 5 mM DTT
  initial RLU compared to the control reaction (DTT without TCEP): greater
[5]; all TCEP concentrations (1.5-96 mM), 5 mM DTT
  retention of originally observed light output at last reading cycle compared to control: greater retention
[3]; 30 μM ATP
  signal decrease from first reading cycle to 11 minutes 34 seconds later: about 6%
[3]; 250 μM ATP
  signal decrease from first reading cycle to 11 minutes 34 seconds later: about 6%
[6]
  reduction of background (no added enzyme) compared to absence of TCEP: 50%
